Reference: US8486951B2 (Deciphera Pharmaceuticals, LLC, priority 2008, dated 2013)

Assays:
[1] = target: T1, c-MET kinase (Seq. ID no. 2) (Homo sapiens, UniProt P08581); assay: c-MET Kinase Assay (ADP production, pyruvate kinase/lactate dehydrogenase coupled); format: biochemical; conditions: read-out: cMET Enzyme Assay
T1 construct: purchased Invitrogen PV3143
Protocol: In this assay, the oxidation of NADH (thus the decrease at A340 nm) was continuously monitored spectrophometrically. […] Test compounds were incubated with C-Met (Seq. ID no. 2) and other reaction reagents at 22° C. for 0.5 h before ATP (100 μM) was added to start the reaction. The absorption at 340 nm was monitored continuously for 2 hours at 30° C. on Polarstar Optima plate reader (BMG). The reaction rate was calculated using the 1.0 to 2.0 h time frame. Percent inhibition was obtained by comparison of reaction rate with that of a control (i.e. with no test compound). IC50 values were calculated from a series of percent inhibition values determined at a range of inhibitor concentrations using software routines as implemented in the GraphPad Prism software package.

[2] = system: EBC-1 cells; assay: EBC-1 Cell Proliferation Assay (resazurin); format: cell-based; conditions: Homo sapiens, 67 h + 5 h resazurin, read-out: EBC1 Cell Proliferation
Protocol: EBC-1 cells (catalog #JCRB0820) were obtained from the Japan Health Science Research Resources Bank, Osaka, Japan. Briefly, cells were grown in DMEM supplemented with 10% characterized fetal bovine serum (Invitrogen, Carlsbad, Calif.) at 37 degrees Celsius, 5% CO2, 95% humidity. Cells were allowed to expand until reaching 70-95% confluency at which point they were subcultured or harvested for assay use.
EBC-1 Cell Proliferation Assay
A serial dilution of test compound was dispensed into a 96-well black clear bottom plate (Corning, Corning, N.Y.). For each cell line, five thousand cells were added per well in 200 μL complete growth medium. Plates were incubated for 67 hours at 37 degrees Celsius, 5% CO2, 95% humidity. […] Data was analyzed using Prism software (Graphpad, San Diego, Calif.) to calculate IC50 values.

[3] = target: T2, PDGFRβ (Homo sapiens, UniProt P09619); assay: PDGFRβ Kinase Assay; format: biochemical; conditions: read-out: PDGFRb Enzyme Assay
T2 construct: purchased Invitrogen

[4] = target: T3, c-KIT kinase (Seq. ID no. 1) (Homo sapiens, UniProt P10721); assay: c-KIT kinase Assay (ADP production, pyruvate kinase/lactate dehydrogenase coupled); format: biochemical; conditions: read-out: cKIT Enzyme Assay
T3 construct: purchased ProQinase
Protocol: In this assay, the oxidation of NADH (thus the decrease at A340 nm) was continuously monitored spectrophometrically. […] The absorption at 340 nm was monitored continuously for 0.5 hours at 30° C. on Polarstar Optima plate reader (BMG). The reaction rate was calculated using the 0 to 0.5 h time frame. Percent inhibition was obtained by comparison of reaction rate with that of a control (i.e. with no test compound). IC50 values were calculated from a series of percent inhibition values determined at a range of inhibitor concentrations using software routines as implemented in the GraphPad Prism software package.

[5] = target: T4, PDGFRα kinase (Homo sapiens, UniProt P16234); assay: PDGFRα Kinase Assay; format: biochemical; conditions: read-out: PDGFRa Enzyme Assay
T4 construct: purchased Invitrogen
Protocol: (§1) Activity of PDGFRα kinase was determined by following the production of ADP from the kinase reaction through coupling with the pyruvate kinase/lactate dehydrogenase system. In this assay, the oxidation of NADH (thus the decrease at A340 nm) was continuously monitored spectrophometrically. The reaction mixture (100 μl) contained PDGFRα (Invitrogen, 10 nM), polyE4Y (1 mg/ml), MgCl2 (10 mM), pyruvate kinase (4 units), lactate dehydrogenase (0.7 units), phosphoenol pyruvate (1 mM) and NADH (0.28 mM) and ATP (500 μM) in a 90 mM Tris buffer containing 0.2% octyl-glucoside and 1% DMSO, pH 7.5. The inhibition reaction was started by mixing serial diluted test compound with the above reaction mixture. The absorption at 340 nm was monitored continuously for 4 hours at 30° C. on a Polarstar Optima or Synergy 2 plate reader. The reaction rate was calculated using the 2 to 3 h time frame. Percent inhibition was obtained by comparison of reaction rate with that of a control (i.e. with no test compound). IC50 values were calculated from a series of percent inhibition values determined at a range of inhibitor concentrations using software routines as implemented in the GraphPad Prism software package.

[6] = target: KDR kinase (Seq ID No. 3) (Homo sapiens, UniProt P35968, DEL940-989/E990V); assay: KDR Kinase Assay (assays K1, K2, K3); format: biochemical; conditions: assay variant K1, K2 or K3 not stated; read-out: KDR Enzyme Assay
[7] = target: T5, FMS kinase (Homo sapiens, UniProt P07333); assay: FMS Kinase Assay; format: biochemical; conditions: read-out: FMS Enzyme Assay
T5 construct: purchased Invitrogen or Millipore
Protocol: as §1, with “In” for “Activity of PDGFRα kinase was determined by following the production of ADP from the kinase reaction through coupling with the pyruvate kinase/lactate dehydrogenase system. In”, “FMS (purchased from Invitrogen or Millipore, 6” for “PDGFRα (Invitrogen, 10”

T3 sequence (P10721 with tags, fused parts or gaps): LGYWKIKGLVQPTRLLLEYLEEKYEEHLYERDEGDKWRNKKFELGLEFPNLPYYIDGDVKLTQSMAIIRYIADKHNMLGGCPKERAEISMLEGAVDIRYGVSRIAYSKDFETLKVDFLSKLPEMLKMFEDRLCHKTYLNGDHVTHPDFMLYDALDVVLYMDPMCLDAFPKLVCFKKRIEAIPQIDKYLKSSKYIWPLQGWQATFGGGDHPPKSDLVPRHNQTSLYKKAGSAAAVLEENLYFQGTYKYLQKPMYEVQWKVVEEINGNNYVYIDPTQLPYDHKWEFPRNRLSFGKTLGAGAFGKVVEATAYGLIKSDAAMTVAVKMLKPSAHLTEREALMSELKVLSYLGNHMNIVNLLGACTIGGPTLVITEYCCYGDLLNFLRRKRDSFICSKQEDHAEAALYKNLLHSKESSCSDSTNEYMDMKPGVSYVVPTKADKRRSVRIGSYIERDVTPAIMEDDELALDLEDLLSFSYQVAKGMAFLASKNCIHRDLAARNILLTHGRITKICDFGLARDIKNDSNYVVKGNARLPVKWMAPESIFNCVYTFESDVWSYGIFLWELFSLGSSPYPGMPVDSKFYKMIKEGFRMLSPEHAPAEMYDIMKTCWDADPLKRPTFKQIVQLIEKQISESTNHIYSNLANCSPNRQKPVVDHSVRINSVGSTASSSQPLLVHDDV
T1 sequence (P08581 with tags, fused parts or gaps): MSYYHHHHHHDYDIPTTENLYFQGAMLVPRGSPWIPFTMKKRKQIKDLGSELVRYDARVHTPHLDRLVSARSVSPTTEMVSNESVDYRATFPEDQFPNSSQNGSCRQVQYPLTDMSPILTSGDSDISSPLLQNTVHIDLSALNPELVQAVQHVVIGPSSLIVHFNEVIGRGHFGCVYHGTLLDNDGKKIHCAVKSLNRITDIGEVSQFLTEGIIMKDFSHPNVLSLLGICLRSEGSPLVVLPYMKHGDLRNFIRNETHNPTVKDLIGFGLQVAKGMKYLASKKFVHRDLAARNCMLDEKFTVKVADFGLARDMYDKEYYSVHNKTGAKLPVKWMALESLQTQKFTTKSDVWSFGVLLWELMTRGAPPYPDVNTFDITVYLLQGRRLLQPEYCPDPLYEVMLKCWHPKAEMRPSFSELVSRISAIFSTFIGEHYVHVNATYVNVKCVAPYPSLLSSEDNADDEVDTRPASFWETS
T4 sequence (P16234 24-1089): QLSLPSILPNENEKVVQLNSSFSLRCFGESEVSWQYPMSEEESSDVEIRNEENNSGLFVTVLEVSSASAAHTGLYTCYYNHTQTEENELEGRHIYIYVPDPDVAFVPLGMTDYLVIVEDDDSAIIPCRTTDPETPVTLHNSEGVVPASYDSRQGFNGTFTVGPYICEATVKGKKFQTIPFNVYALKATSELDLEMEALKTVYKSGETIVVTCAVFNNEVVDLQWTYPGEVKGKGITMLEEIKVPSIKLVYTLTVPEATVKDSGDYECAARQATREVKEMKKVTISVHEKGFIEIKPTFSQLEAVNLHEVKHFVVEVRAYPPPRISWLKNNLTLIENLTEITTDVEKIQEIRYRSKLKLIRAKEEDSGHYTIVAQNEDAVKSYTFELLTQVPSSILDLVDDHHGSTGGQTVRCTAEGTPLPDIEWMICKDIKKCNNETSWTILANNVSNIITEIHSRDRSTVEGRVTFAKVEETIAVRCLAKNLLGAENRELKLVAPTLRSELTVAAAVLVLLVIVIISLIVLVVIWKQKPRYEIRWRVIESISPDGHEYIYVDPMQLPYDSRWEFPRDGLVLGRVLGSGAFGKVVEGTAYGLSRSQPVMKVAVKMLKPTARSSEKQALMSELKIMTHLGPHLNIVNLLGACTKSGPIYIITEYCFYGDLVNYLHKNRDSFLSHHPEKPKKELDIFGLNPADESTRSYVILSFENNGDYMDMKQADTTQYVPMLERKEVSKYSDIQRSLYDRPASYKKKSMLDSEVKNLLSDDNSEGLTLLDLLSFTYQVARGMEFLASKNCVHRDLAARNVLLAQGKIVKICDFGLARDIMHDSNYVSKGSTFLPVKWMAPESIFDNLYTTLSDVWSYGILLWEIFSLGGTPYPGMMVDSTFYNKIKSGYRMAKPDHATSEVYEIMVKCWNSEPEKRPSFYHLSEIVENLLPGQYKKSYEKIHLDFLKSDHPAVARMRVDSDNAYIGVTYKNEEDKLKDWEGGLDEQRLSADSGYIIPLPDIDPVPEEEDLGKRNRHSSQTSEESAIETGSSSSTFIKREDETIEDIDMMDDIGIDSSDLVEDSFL
KDR kinase (Seq ID No. 3), sequence (P35968 with tags, fused parts or gaps DEL940-989/E990V): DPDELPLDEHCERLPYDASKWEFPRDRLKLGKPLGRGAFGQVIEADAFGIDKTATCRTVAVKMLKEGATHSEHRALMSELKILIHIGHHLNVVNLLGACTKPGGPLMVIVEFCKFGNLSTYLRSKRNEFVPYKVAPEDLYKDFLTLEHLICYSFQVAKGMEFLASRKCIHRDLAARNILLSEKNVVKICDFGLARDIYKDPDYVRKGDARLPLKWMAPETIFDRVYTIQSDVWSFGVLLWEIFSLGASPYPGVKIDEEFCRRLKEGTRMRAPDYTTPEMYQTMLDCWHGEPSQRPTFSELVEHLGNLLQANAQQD
T2 sequence (P09619 33-1106): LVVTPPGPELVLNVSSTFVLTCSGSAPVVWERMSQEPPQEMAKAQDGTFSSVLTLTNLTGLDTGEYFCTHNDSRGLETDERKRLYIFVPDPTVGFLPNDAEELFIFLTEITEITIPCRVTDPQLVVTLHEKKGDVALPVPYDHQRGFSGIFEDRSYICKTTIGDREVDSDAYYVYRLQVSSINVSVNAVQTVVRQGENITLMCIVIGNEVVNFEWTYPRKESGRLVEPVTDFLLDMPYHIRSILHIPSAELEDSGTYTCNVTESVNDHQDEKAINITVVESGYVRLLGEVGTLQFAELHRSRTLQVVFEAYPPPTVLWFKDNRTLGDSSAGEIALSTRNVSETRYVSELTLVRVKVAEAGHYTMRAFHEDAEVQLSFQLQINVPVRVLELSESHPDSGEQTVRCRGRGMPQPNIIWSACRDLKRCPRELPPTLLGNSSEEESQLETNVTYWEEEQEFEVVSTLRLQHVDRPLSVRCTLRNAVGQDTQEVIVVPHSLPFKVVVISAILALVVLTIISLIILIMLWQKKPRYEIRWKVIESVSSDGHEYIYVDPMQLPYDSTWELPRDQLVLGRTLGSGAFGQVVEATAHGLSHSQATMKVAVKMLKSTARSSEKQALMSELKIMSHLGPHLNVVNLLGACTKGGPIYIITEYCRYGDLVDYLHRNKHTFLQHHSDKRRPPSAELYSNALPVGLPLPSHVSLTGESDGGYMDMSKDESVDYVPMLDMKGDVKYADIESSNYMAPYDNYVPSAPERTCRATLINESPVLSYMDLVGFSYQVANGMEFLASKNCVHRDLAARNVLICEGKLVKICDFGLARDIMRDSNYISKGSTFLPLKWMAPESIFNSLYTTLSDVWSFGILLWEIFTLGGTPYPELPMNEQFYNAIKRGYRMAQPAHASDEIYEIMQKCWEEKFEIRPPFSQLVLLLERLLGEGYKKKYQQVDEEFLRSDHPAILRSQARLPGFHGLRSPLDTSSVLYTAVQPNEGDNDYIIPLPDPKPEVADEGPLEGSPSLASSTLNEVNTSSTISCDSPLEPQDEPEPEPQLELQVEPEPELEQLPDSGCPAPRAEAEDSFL
T5 sequence (P07333 20-972): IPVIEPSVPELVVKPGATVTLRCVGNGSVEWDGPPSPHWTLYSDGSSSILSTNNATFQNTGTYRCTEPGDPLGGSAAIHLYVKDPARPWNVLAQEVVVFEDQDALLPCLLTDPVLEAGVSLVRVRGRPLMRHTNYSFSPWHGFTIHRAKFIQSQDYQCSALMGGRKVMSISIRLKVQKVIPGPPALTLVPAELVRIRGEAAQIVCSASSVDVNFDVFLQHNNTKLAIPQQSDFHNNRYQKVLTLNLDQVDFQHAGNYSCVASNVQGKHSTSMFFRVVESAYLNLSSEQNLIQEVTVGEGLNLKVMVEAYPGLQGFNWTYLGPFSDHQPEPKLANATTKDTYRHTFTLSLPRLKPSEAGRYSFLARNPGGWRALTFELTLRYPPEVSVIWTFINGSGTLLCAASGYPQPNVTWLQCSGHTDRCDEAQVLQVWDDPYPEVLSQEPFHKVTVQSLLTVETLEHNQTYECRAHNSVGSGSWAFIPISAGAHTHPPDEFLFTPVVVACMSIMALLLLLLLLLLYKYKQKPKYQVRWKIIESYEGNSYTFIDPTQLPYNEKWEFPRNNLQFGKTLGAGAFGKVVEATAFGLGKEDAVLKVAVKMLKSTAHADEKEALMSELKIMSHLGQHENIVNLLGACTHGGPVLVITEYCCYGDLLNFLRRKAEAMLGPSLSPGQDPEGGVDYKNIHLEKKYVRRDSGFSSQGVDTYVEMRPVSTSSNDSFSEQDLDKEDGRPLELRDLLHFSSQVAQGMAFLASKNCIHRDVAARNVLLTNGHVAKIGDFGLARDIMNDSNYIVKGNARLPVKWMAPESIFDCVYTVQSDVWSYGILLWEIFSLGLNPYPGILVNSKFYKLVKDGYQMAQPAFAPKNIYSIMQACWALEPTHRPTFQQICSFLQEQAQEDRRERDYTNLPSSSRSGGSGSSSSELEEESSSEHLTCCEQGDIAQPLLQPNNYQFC

Row | Compound | IC50 [1] [nM] | IC50 [2] [nM] | IC50 [3] [nM] | IC50 [4] [nM] | IC50 [5] [nM] | IC50 [6] [nM] | IC50 [7] [nM]
1 | Cn1cc(-c2cc(Oc3cc(F)c(NC(=O)C4(C(=O)Nc5ccc(F)cc5)CC4)cc3Cl)ccn2)cn1 [Example 47, N-(5-chloro-2-fluoro-4-(2-(1-methyl-1H-pyrazol-4-yl)pyridin-4-yloxy)phenyl)-N′-(4-fluorophenyl)cyclopropane-1,1-dicarboxamide] | < 200 | < 200 | < 10000 | < 200 | < 200 | < 2000 | –
2 | CCn1cc(-c2cc(Oc3ccc(NC(=O)C4(C(=O)Nc5ccc(F)cc5)CC4)cc3F)ccn2)cn1 [Example 19, N-(4-(2-(1-ethyl-1H-pyrazol-4-yl)pyridin-4-yloxy)-3-fluorophenyl)-N′-(4-fluorophenyl)cyclopropane-1,1-dicarboxamide] | – | < 2000 | – | – | – | – | –
3 | Cn1cc(-c2cc(Oc3c(F)cc(NC(=O)NC(=O)Cc4ccc(F)cc4)cc3F)ccn2)cn1 [Example 48, 1-(3,5-difluoro-4-(2-(1-methyl-1H-pyrazol-4-yl)pyridin-4-yloxy)phenyl)-3-(2-(4-fluorophenyl)acetyl)urea] | < 10000 | – | < 10000 | < 2000 | < 10000 | < 2000 | < 10000
4 | O=C(Nc1ccc(F)cc1)C1(C(=O)Nc2ccc(Oc3ccnc(-c4cnn(CCO)c4)c3)c(F)c2)CC1 [Example 21, N-(3-fluoro-4-(2-(1-(2-hydroxyethyl)-1H-pyrazol-4-yl)pyridin-4-yloxy)phenyl)-N′-(4-fluorophenyl)cyclopropane-1,1-dicarboxamide] | < 2000 | < 2000 | < 10000 | < 2000 | < 2000 | < 2000 | –
5 | Cn1cc(-c2cc(Oc3ccc(NC(=O)C4(C(=O)NCc5ccccc5)CC4)cc3F)ccn2)cn1 [Example 4, N-benzyl-N′-(3-fluoro-4-(2-(1-methyl-1H-pyrazol-4-yl)pyridin-4-yloxy)phenyl)cyclopropane-1,1-dicarboxamide] | – | – | < 10000 | < 2000 | < 10000 | < 2000 | < 200
6 | O=C(Nc1ccc(F)cc1)C1(C(=O)Nc2cc(Oc3nccc(-c4cn[nH]c4)n3)ccc2F)CC1 [Example 55, N-(5-(4-(1H-pyrazol-4-yl)pyrimidin-2-yloxy)-2-fluorophenyl)-N′-(4-fluorophenyl)cyclopropane-1,1-dicarboxamide] | < 10000 | – | < 10000 | < 10000 | < 10000 | < 10000 | < 10000
7 | Cn1cc(-c2cc(Oc3ccc(NC(=O)C4(C(=O)Nc5ccc(F)cc5)CC4)cc3Cl)ccn2)cn1 [Example 30, N-(3-chloro-4-(2-(1-methyl-1H-pyrazol-4-yl)pyridin-4-yloxy)phenyl)-N′-(4-fluorophenyl)cyclopropane-1,1-dicarboxamide] | < 200 | < 2000 | < 10000 | < 200 | < 2000 | – | –
8 | Cn1cc(-c2cc(Oc3ccc(NC(=O)C4(C(=O)Nc5cccc(C(F)(F)F)c5)CC4)cc3F)ccn2)cn1 [Example 6, N-(3-fluoro-4-(2-(1-methyl-1H-pyrazol-4-yl)pyridin-4-yloxy)phenyl)-N′-(3-(trifluoromethyl)phenyl)cyclopropane-1,1-dicarboxamide] | – | < 10000 | < 10000 | < 10000 | < 2000 | < 200 | < 2000
9 | Cc1c(-c2cc(Oc3cc(F)c(NC(=O)C4(C(=O)Nc5ccc(F)cc5)CC4)cc3F)ccn2)cnn1C [Example 50, N-(4-(2-(1,5-dimethyl-1H-pyrazol-4-yl)pyridin-4-yloxy)-2,5-difluorophenyl)-N′-(4-fluorophenyl)cyclopropane-1,1-dicarboxamide] | < 200 | < 200 | < 10000 | < 200 | < 2000 | < 200 | –
10 | C[C@@H](NC(=O)C1(C(=O)Nc2ccc(Oc3ccnc(-c4cnn(C)c4)c3)c(F)c2)CC1)c1ccccc1 [Example 17, N-(3-fluoro-4-(2-(1-methyl-1H-pyrazol-4-yl)pyridin-4-yloxy)phenyl)-N′-((R)-1-phenylethyl)cyclopropane-1,1-dicarboxamide] | – | – | < 10000 | < 2000 | < 10000 | < 10000 | < 200
11 | Cn1cc(-c2cc(Oc3cc(F)c(NC(=O)NC(=O)Cc4ccc(F)cc4)cc3Cl)ccn2)cn1 [Example 46, 1-(5-chloro-2-fluoro-4-(2-(1-methyl-1H-pyrazol-4-yl)pyridin-4-yloxy)phenyl)-3-(2-(4-fluorophenyl)acetyl)urea] | < 200 | < 200 | < 200 | < 200 | < 200 | < 2000 | –
12 | 1-(2,3-difluoro-4-(2-(1H-pyrazol-4-yl)pyridin-4-yloxy)phenyl)-3-(2-(4-fluorophenyl)acetyl)urea [Example 43] | < 2000 | – | < 2000 | < 2000 | < 200 | < 10000 | < 200
13 | C[C@H](NC(=O)C1(C(=O)Nc2ccc(Oc3ccnc(-c4cnn(C)c4)c3)c(F)c2)CC1)c1ccccc1 [Example 16, N-(3-fluoro-4-(2-(1-methyl-1H-pyrazol-4-yl)pyridin-4-yloxy)phenyl)-N′-((S)-1-phenylethyl)cyclopropane-1,1-dicarboxamide] | – | < 10000 | < 10000 | < 200 | < 2000 | < 10000 | < 200
14 | CCCn1cc(-c2cc(Oc3ccc(NC(=O)C4(C(=O)Nc5ccc(F)cc5)CC4)cc3F)ccn2)cn1 [Example 20, N-(3-fluoro-4-(2-(1-propyl-1H-pyrazol-4-yl)pyridin-4-yloxy)phenyl)-N′-(4-fluorophenyl)cyclopropane-1,1-dicarboxamide] | – | < 2000 | – | – | – | – | –
15 | Cc1c(Oc2ccnc(-c3cnn(C)c3)c2)ccc(NC(=O)C2(C(=O)Nc3ccc(F)cc3)CC2)c1F [Example 32, N-(2-fluoro-3-methyl-4-(2-(1-methyl-1H-pyrazol-4-yl)pyridin-4-yloxy)phenyl)-N-(4-fluorophenyl)cyclopropane-1,1-dicarboxamide] | < 2000 | – | – | – | – | < 10000 | < 2000
16 | O=C(Nc1ccc(F)cc1)C1(C(=O)Nc2ccc(Oc3ccnc(-c4cn[nH]c4)c3)c(F)c2)CC1 [Example 31, N-(4-(2-(1H-pyrazol-4-yl)pyridin-4-yloxy)-3-fluorophenyl)-N′-(4-fluorophenyl)cyclopropane-1,1-dicarboxamide] | < 200 | < 2000 | – | – | – | – | –
